US11001563B2, “SSAO inhibitor” (SHANDONG DANHONG PHARMACEUTICAL CO., LTD., priority 2017, dated 2021)

What follows are molecules tested against VAP-1/SSAO (Homo sapiens (Human), UniProt Q16853) (assay: Human VAP-1 enzyme activity assay (Amplex Red Monoamine Oxidase kit)). Conditions: 10 nM VAP-1 enzyme, 30 min preincubation, benzylamine substrate; read-out: Human Recombinant VAP-1/SSAO Enzyme Inhibitory Activity IC50.
Type: biochemical
Procedure: Human VAP-1 enzyme activity assay:
The inhibition of the sample on VAP-enzyme activity was measured by using an Amplex® Red Monoamine Oxidase kit (Invitrogen #A12214). 100 nL of the gradiently-diluted to-be-tested compound (solvent DMSO) was added to a 384-well plate. 25 μL of 10 nM VAP-1 enzyme solution was added and incubated for 30 minutes at room temperature. A substrate mixture of VAP-1 enzyme (200 μM Amplex Red, 1 U/mL HRP, 1 mM Benzylamine) was added and incubated for 60 minutes at room temperature. After the incubation, the fluorescent signal was read with a microplate reader Envision (excitation light wavelength 530-560 nm, emission light wavelength 590 nm). The fluorescence signal value after the background signal was removed was analyzed by Prism software, and the IC50 of the sample against the VAP-1 enzyme was calculated.

VAP-1/SSAO, sequence (Q16853 whole entry): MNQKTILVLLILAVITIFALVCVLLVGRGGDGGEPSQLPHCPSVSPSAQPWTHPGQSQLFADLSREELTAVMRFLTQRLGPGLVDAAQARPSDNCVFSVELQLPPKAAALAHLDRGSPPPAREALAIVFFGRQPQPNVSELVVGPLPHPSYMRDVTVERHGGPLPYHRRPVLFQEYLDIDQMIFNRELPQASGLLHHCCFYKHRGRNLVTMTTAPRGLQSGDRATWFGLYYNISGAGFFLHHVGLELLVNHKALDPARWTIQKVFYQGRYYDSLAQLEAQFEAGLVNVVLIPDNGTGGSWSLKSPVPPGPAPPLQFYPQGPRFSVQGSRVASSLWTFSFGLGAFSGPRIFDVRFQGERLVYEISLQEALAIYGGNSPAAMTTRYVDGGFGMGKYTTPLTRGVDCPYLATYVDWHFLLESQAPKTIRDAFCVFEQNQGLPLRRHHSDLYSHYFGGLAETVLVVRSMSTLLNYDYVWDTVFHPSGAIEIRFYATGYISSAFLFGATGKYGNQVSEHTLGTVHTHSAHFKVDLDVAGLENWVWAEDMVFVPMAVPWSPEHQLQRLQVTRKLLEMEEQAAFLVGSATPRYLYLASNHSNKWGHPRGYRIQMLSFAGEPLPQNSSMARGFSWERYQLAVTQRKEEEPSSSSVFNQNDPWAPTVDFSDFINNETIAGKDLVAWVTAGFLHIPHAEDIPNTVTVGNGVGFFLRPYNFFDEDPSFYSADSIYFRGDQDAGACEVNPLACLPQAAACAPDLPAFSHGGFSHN

Row | Compound | IC50
1 | Cc1n[nH]c(-c2ccc(OC/C(=C/F)CN)cc2)n1 [WX009] | 3.7 nM
2 | Cn1ncc(-c2ccc(OC/C(=C/F)CN)cc2)n1 [WX026] | 0.3 nM
3 | CC(C)(C)c1n[nH]c(-c2ccc(OC/C(=C/F)CN)cc2)n1 [WX035] | 2.3 nM
4 | NC/C(=C\F)COc1ccc(-c2nc(C(F)(F)F)n[nH]2)cc1 [WX036] | 4.6 nM
5 | CC(C)(C)NC(=O)c1noc(-c2ccc(OC/C(=C/F)CN)cc2)n1 [WX042] | 1.6 nM
6 | CC(C)(C)n1nnc(-c2ccc(OC/C(=C/F)CN)cc2)n1 [WX048] | 0.6 nM
7 | NC/C(=C\F)COc1ccc(-c2nnn(C3CC3)n2)cc1 [WX049] | 0.3 nM
8 | NC/C(=C\F)COc1ccc(-c2nc(C3CC3)no2)c(Cl)c1 [WX056] | 1.7 nM
9 | CS(=O)(=O)n1nc(C2CC2)nc1-c1ccc(OC/C(=C/F)CN)cc1 [WX062] | 1.2 nM
10 | NC/C(=C\F)COc1ccc(-c2nc(C3CCCC3)n[nH]2)cc1 [WX064] | 0.8 nM
11 | NC/C(=C\F)COc1ccc(-c2nccc(N3CCOCC3)n2)cc1 [WX070] | 1.1 nM
12 | NC/C(=C\F)COc1ccc(-c2nc(C(N)=O)n[nH]2)cc1 [WX072] | 0.7 nM
13 | NC/C(=C\F)COc1ccc(-c2nc(N3CCOCC3)n[nH]2)cc1 [WX073] | 0.9 nM
14 | Cn1nc(-c2ccc(OC/C(=C/F)CN)cc2)nc1C1CC1 [WX075] | 0.7 nM
15 | Cn1nc(C2CC2)nc1-c1ccc(OC/C(=C/F)CN)cc1 [WX076] | 2.1 nM
16 | CC(C)(C)C(=O)Nc1noc(-c2ccc(OC/C(=C/F)CN)cc2)n1 [WX077] | 1.6 nM
17 | NC/C(=C\F)COc1ccc(-c2nnc(NC3CC3)o2)cc1 [WX079] | 0.2 nM
18 | COc1ccc(Cn2nc(-c3ccc(OC/C(=C/F)CN)cc3)nc2NC2CC2)cc1 [WX080] | 3.8 nM
19 | NC/C(=C\F)COc1ccc(-c2nc(NC3CC3)n[nH]2)cc1 [WX081] | 0.5 nM
20 | NC/C(=C\F)COc1ccc(-c2n[nH]c(C(CO)CCl)n2)cc1 (stereo not shown) [WX083] | 0.4 nM
21 | NC/C(=C\F)COc1ccc(-c2nc(C3CCC3)n[nH]2)cc1 [WX085] | 0.2 nM
22 | NC/C(=C\F)COc1ccc(-c2nc(N3CCOCC3)cs2)cc1 [WX086] | 9.9 nM
23 | Cn1nc(C(C)(C)C)nc1-c1ccc(OC/C(=C/F)CN)cc1 [WX089] | 1.9 nM
24 | Cn1nc(-c2ccc(OC/C(=C/F)CN)cc2)nc1C(C)(C)C [WX090] | 1.1 nM

Next, values leading:

Row | IC50 | Compound
25 | 2.5 nM | Cc1nnc(-c2ccc(OC/C(=C/F)CN)cc2)o1 [WX004]
26 | 0.8 nM | NC/C(=C\F)COc1ccc(-c2nc(-c3ccccc3)no2)cc1 [WX017]
27 | 2 nM | CC(C)(C)c1noc(-c2ccc(OC/C(=C/F)CN)cc2)n1 [WX019]
28 | 0.3 nM | NC/C(=C\F)COc1ccc(-c2ncccn2)cc1 [WX021]
29 | 0.3 nM | Cc1csc(-c2ccc(OC/C(=C/F)CN)cc2)n1 [WX022]
30 | 0.4 nM | NC/C(=C\F)COc1ccc(-c2nc3ccccc3o2)cc1 [WX023]
31 | 0.3 nM | Cc1ncc(-c2ccc(OC/C(=C/F)CN)cc2)s1 [WX024]
32 | 0.9 nM | Cn1cnc(-c2ccc(OC/C(=C/F)CN)cc2)n1 [WX025]
33 | 0.7 nM | Cc1nc(-c2ccc(OC/C(=C/F)CN)cc2)no1 [WX028]
34 | 0.3 nM | NC/C(=C\F)COc1ccc(-c2noc3ccccc23)cc1 [WX033]
35 | 0.5 nM | Cc1coc(-c2ccc(OC/C(=C/F)CN)cc2)n1 [WX039]
36 | 0.5 nM | Cc1cnoc1-c1ccc(OC/C(=C/F)CN)cc1 [WX040]
37 | 0.6 nM | Cc1cn[nH]c1-c1ccc(OC/C(=C/F)CN)cc1 [WX041]
38 | 0.5 nM | NC/C(=C\F)COc1ccc(-c2noc(C3CC3)n2)cc1 [WX044]
39 | 1.1 nM | CC(C)(C)c1nc(-c2ccc(OC/C(=C/F)CN)cc2)no1 [WX045]
40 | 1.3 nM | NC/C(=C\F)COc1ccc(N2C(=O)C(=O)c3ccccc32)cc1 [WX052]
41 | 0.4 nM | NC/C(=C\F)COc1ccc(-c2nc3ccc(Cl)cc3[nH]2)cc1 [WX054]
42 | 1 nM | NC/C(=C\F)COc1ccc(-c2nc(N)no2)cc1 [WX074]
43 | 0.3 nM | NC/C(=C\F)COc1ccc(-c2nc(NC3CC3)no2)cc1 [WX082]
